Measurements reported in patent publication US20260083708A1, “IL-17 MODULATORS AND USES THEREOF” (NNOCARE PHARMA INC., priority 2024, published 2026).

Tests used:
IL-17AA and IL-17RA = target: T1, IL-17AA and IL-17RA (Homo sapiens, UniProt Q16552); experiment: Competitive inhibition of human IL-17AA and IL-17RA binding (HTRF); settings: recombinant IL-17AA (His-tag) and IL-17RA (hFc-tag); read-out: IC50 for Inhibiting IL-AA/IL-RA Binding
T1 construct: purchased Sino Biological 12047-H07B (IL-17AA); 10895-H02H (IL-17RA)
T1 sequence (Q16552 24-155): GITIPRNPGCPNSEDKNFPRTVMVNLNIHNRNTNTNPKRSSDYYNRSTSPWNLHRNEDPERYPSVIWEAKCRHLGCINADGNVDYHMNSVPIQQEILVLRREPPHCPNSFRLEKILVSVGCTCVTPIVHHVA
Description: Example 42. Competitive Inhibition of Human IL-17AA and IL-17RA Binding
Recombinant IL-17AA (His-tag, Catalog Number 12047-H07B) and IL-17RA (hFc-tag, Catalog Number 10895-H02H) were purchased from Sino Biological. In the experiment, 10 μL of IL-17AA (1 nM) or IL-17RA (1 nM) was added to 10 μL of anti-6His-Tb (0.4 nM, Revvity, Catalog Number 61HISTLF) or anti-human IgG-d2 (1 μg/mL, anti-human IgG-d2, Revvity, Catalog Number 61HFCDAF), respectively and incubated at room temperature for 1 hour. Compounds were serially diluted starting from 10 μM. 5 μL of each compound solution was incubated with 5 μL of a mixture of IL-17AA and anti-6His-Tb at room temperature for 2 hours. After pre-incubation, to which was added 10 μL of a mixture of IL-17RA and anti-human IgG-d2, and incubation was continued for additional 20 minutes. Subsequently, a microplate reader (Envision, PerkinElmer) was used to detect fluorescence intensity at 615 nm and 665 nm, and the ratio of intensity thereof indicates the degree of IL-17AA and IL-17RA interaction. The ratio of intensity in the absence of tested compound was the highest value of binding between IL-17AA and IL-17RA, and the ratio of intensity in the absence of IL-17AA was the lowest value.
(§1) Therefore, the percentage of inhibition of tested compound was calculated as
Experimental results were analyzed using XLfit (IDBS) for 4-parameter nonlinear fitting analysis, to provide the IC50 value for each tested compound (Table 1).

[1] = tested on: IL-17AF-induced IL-17 signaling pathway; experiment: Inhibition of IL-17AF-induced IL-17 signaling pathway; assay type: cell-based; settings: Homo sapiens; IL-17AF used instead of IL-17AA; read-out: IC50 for Inhibiting IL-AF Signaling
Text: (§2) Interleukin-17 (IL-17) reporter cell line (HEK-Blue IL-17, InvivoGen, Catalog Number hkb-i117) is created by genetically engineering human IL-17RA/IL-17RC heterodimeric receptor and downstream adapter protein ACT1 into human embryonic kidney 293 cells (HEK293). These cells also express secreted embryonic alkaline phosphatase (SEAP) reporter gene induced by NF-κB and AP-1. Therefore, IL-17AA can activate NF-κB and AP-1 signaling pathways inside the cells by binding to IL-17RA/RC on cell membrane, leading to expression of SEAP protein. After a colorimetric reaction between SEAP protein and Quanti-Blue solution, the absorbance at 620 nm is measured using a microplate reader (BioTek H1M, Agilent, Catalog Number SH1M-SN) to determine IL-17AA-activated signaling pathway.
(§3) In the experiment, HEK-Blue IL-17 cells were cultured at 37° C. under 5% CO2 conditions using the recommended medium from InvivoGen's instruction. Compounds were serially diluted starting from 10 μM. 4 μL of each compound solution was added to 32 μL of cells (10,000 cells) at 37° C. for 1 hour. After pre-incubation, 4 μL of IL-17AA with a final concentration of 2.5 ng/mL (Sino Biological, Catalog Number 12047-HNAS) was added to the cells, and incubation was continued for additional 20 hours. After incubation, 5 μL of cell culture supernatant was added to 45 μL of Quanti-Blue for the colorimetric reaction. The group without tested compound had the highest absorbance at 620 nm, and the group without IL-17AA had the lowest absorbance at 620 nm.
as §1
(§4) Experimental results were analyzed using XLfit (IDBS) for 4-parameter nonlinear fitting analysis to provide the IC50 value for each tested compound (Table 1).
Example 44. Inhibition of IL-17AF-Induced IL-17 Signaling Pathway
The same experimental procedure to Example […] was followed where IL-17AF was used instead of IL-17AA.

[2] = tested on: IL-17AA-induced IL-17 signaling pathway; experiment: Inhibition of IL-17AA-induced IL-17 signaling pathway in HEK-Blue IL-17 reporter cells (SEAP); assay type: cell-based; settings: Homo sapiens; HEK-Blue IL-17 cells, IL-17AA 2.5 ng/mL, 20 hours; read-out: IC50 for Inhibiting IL-AA Signaling
Text: Example 43. Inhibition of IL-17AA-Induced IL-17 Signaling Pathway
as §2, §3, §1, §4

SMILES | IC50 (IL-17AA and IL-17RA) | IC50 [1] | IC50 [2]
CCC(=O)N[C@@H](c1nncn1CC1CC1)[C@@H](C)c1ccc(NC(=O)[C@@H](NC(=O)c2ccnn2CC)C(C2CC2)C2CC2)c(F)c1 [Compound 1, N-((S)-1,1-dicyclopropyl-3-((4-((1R,2S)-1-(4-(cyclopropylmethyl)-4H-1,2,4-triazol-3-yl)-1-propionamidopropan-2-yl)-2-fluorophenyl)amino)-3-oxopropan-2-yl)-1-ethyl-1H-pyrazole-5-carboxamide] | 27 nM | 49 nM | 13 nM
CCn1nccc1C(=O)N[C@H](C(=O)Nc1ccc([C@H](C)[C@@H](NC(C)=O)c2nncn2CC2CC2)cc1F)C(C1CC1)C1CC1 [Compound 2, N-((S)-1-((4-((1R,2S)-1-acetamido-1-(4-(cyclopropylmethyl)-4H-1,2,4-triazol-3-yl)propan-2-yl)-2-fluorophenyl)amino)-3,3-dicyclopropyl-1-oxopropan-2-yl)-1-ethyl-1H-pyrazole-5-carboxamide] | 12 nM | 99 nM | 50 nM
CCn1nccc1C(=O)N[C@H](C(=O)Nc1ccc([C@H](C)[C@@H](NC(=O)COC)c2nncn2CC2CC2)cc1F)C(C1CC1)C1CC1 [Compound 3, N-((S)-1,1-dicyclopropyl-3-((4-((1R,2S)-1-(4-(cyclopropylmethyl)-4H-1,2,4-triazol-3-yl)-1-(2-methoxyacetamido)propan-2-yl)-2-fluorophenyl)amino)-3-oxopropan-2-yl)-1-ethyl-1H-pyrazole-5-carboxamide] | 7.3 nM | 25 nM | 4.1 nM
COCC(=O)N[C@@H](c1nncn1CC1CC1)[C@@H](C)c1ccc(NC(=O)[C@@H](NC(=O)c2ccnn2C(C)C)C(C2CC2)C2CC2)c(F)c1 [Compound 4, N-((S)-1,1-dicyclopropyl-3-((4-((1R,2S)-1-(4-(cyclopropylmethyl)-4H-1,2,4-triazol-3-yl)-1-(2-methoxyacetamido)propan-2-yl)-2-fluorophenyl)amino)-3-oxopropan-2-yl)-1-isopropyl-1H-pyrazole-5-carboxamide] | 10 nM | 20 nM | 17 nM
CCn1nccc1C(=O)N[C@H](C(=O)Nc1ccc([C@H](C)[C@@H](NC(=O)COC)c2nncn2C)cc1F)C(C1CC1)C1CC1 [Compound 6, N-((S)-1,1-dicyclopropyl-3-((2-fluoro-4-((1R,2S)-1-(2-methoxyacetamido)-1-(4-methyl-4H-1,2,4-triazol-3-yl)propan-2-yl)phenyl)amino)-3-oxopropan-2-yl)-1-ethyl-1H-pyrazole-5-carboxamide] | 66 nM | 516 nM | 146 nM
COCC(=O)N[C@@H](c1nncn1CC1CC1)[C@@H](C)c1ccc(NC(=O)[C@@H](NC(=O)COCC2(C(F)F)COC2)C(C2CC2)C2CC2)c(F)c1 [Compound 10, (S)-3,3-dicyclopropyl-N-(4-((1R,2S)-1-(4-(cyclopropylmethyl)-4H-1,2,4-triazol-3-yl)-1-(2-methoxyacetamido)propan-2-yl)-2-fluorophenyl)-2-(2-((3-(difluoromethyl)oxetan-3-yl)methoxy)acetamido)propanamide] | 109 nM | 1040 nM | 277 nM
COCC(=O)N[C@@H](c1nncn1CC1CC1)[C@@H](C)c1ccc(NC(=O)[C@@H](NC(=O)COc2cc(C(F)F)ccn2)C(C2CC2)C2CC2)c(F)c1 [Compound 13, (S)-3,3-dicyclopropyl-N-(4-((1R,2S)-1-(4-(cyclopropylmethyl)-4H-1,2,4-triazol-3-yl)-1-(2-methoxyacetamido)propan-2-yl)-2-fluorophenyl)-2-(2-((4-(difluoromethyl)pyridin-2-yl)oxy)acetamido)propanamide] | 40 nM | 216 nM | 67 nM

Second part, the compound after the results:

IC50 (IL-17AA and IL-17RA) | IC50 [1] | IC50 [2] | SMILES
5.2 nM | 8.9 nM | 3.9 nM | COCC(=O)N[C@@H](c1nncn1CC1CC1)[C@@H](C)c1ccc(NC(=O)[C@@H](NC(=O)C(F)(F)c2ccc(OC)nc2)C(C2CC2)C2CC2)c(F)c1 [Compound 7, (S)-3,3-dicyclopropyl-N-(4-((1R,2S)-1-(4-(cyclopropylmethyl)-4H-1,2,4-triazol-3-yl)-1-(2-methoxyacetamido)propan-2-yl)-2-fluorophenyl)-2-(2,2-difluoro-2-(6-methoxypyridin-3-yl)acetamido)propanamide]
13 nM | 73 nM | 35 nM | COCC(=O)N[C@@H](c1nncn1CC1CC1)[C@@H](C)c1ccc(NC(=O)[C@@H](NC(=O)COc2cc(C(F)F)on2)C(C2CC2)C2CC2)c(F)c1 [Compound 8]
16 nM | 133 nM | 31 nM | CCn1nccc1C(=O)N[C@H](C(=O)Nc1ccc([C@H](C)[C@@H](NC(=O)COC)c2nncn2CC2CCOCC2)cc1F)C(C1CC1)C1CC1 [Compound 9, N-((S)-1,1-dicyclopropyl-3-((2-fluoro-4-((1R,2S)-1-(2-methoxyacetamido)-1-(4-((tetrahydro-2H-pyran-4-yl)methyl)-4H-1,2,4-triazol-3-yl)propan-2-yl)phenyl)amino)-3-oxopropan-2-yl)-1-ethyl-1H-pyrazole-5-carboxamide]
13 nM | 92 nM | 44 nM | COCC(=O)N[C@@H](c1nncn1CC1CC1)[C@@H](C)c1ccc(NC(=O)[C@@H](NC(=O)C2(F)CC2)C(C2CC2)C2CC2)c(F)c1 [Compound 11, N-((S)-1,1-dicyclopropyl-3-((4-((1R,2S)-1-(4-(cyclopropylmethyl)-4H-1,2,4-triazol-3-yl)-1-(2-methoxyacetamido)propan-2-yl)-2-fluorophenyl)amino)-3-oxopropan-2-yl)-1-fluorocyclopropane-1-carboxamide]
49 nM | 320 nM | 91 nM | CCn1nccc1C(=O)N[C@H](C(=O)Nc1ccc([C@H](C)[C@@H](NC(=O)COC)c2nncn2C2CC2)cc1F)C(C1CC1)C1CC1 [Compound 12, N-((S)-1,1-dicyclopropyl-3-((4-((1R,2S)-1-(4-cyclopropyl-4H-1,2,4-triazol-3-yl)-1-(2-methoxyacetamido)propan-2-yl)-2-fluorophenyl)amino)-3-oxopropan-2-yl)-1-ethyl-1H-pyrazole-5-carboxamide]
2.9 nM | 9 nM | 2.3 nM | CCc1nonc1C(=O)N[C@H](C(=O)Nc1ccc([C@H](C)[C@@H](NC(=O)COC)c2nncn2CC2CC2)cc1F)C(C1CC1)C1CC1 [Compound 14, N-((S)-1,1-dicyclopropyl-3-((4-((1R,2S)-1-(4-(cyclopropylmethyl)-4H-1,2,4-triazol-3-yl)-1-(2-methoxyacetamido)propan-2-yl)-2-fluorophenyl)amino)-3-oxopropan-2-yl)-4-ethyl-1,2,5-oxadiazole-3-carboxamide]
172 nM | 2130 nM | 1120 nM | COCC(=O)N[C@@H](c1nncn1CC1CC1)[C@@H](C)c1ccc(NC(=O)[C@@H](NC(=O)COCC2CC2)C(C2CC2)C2CC2)c(F)c1 [Compound 15, (S)-3,3-dicyclopropyl-2-(2-(cyclopropylmethoxy)acetamido)-N-(4-((1R,2S)-1-(4-(cyclopropylmethyl)-4H-1,2,4-triazol-3-yl)-1-(2-methoxyacetamido)propan-2-yl)-2-fluorophenyl)propanamide]
